The supplement of paper PMC11061612

How the values were obtained:
[1] = compound: C1CC(C1)(C(=O)[O-])C(=O)[O-].N.N.[Pt+2] [Carboplatin]; conditions: max 10 µM
Method in brief: (§1)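 Cancer cell lines were plated in 1536-well plates in 7.5 μl of DMEM/F12 or RPMI with 10% FBS and kept 24 hours at 37°C and 5% CO2 before 72 hours of dosing, with final DMSO typically 0.2%. CellTiter-Glo 2.0 luminescence measured viability, scaled between blank-well and DMSO-well means. Dose responses were fitted to a two-parameter logistic curve with a non-linear mixed effects model. This fit gives the single-agent IC50.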

[2] = compound: C1CN(CCC1(C(=O)N[C@@H](CCO)C2=CC=C(C=C2)Cl)N)C3=NC=NC4=C3C=CN4 [AZD5363]; conditions: max 10 µM
Method in brief: as §1

[3] = compound: C=CCn1c(=O)c2cnc(Nc3ccc(N4CCN(C)CC4)cc3)nc2n1-c1cccc(C(C)(C)O)n1 [AZD1775]; conditions: max 3 µM
Method in brief: as §1

[4] = compound: CC(=O)Nc1cccc(-n2c(=O)n(C3CC3)c(=O)c3c(Nc4ccc(I)cc4F)n(C)c(=O)c(C)c32)c1 [Trametinib]; conditions: max 1 µM
Method in brief: as §1

[5] = compound: CC(=O)O[C@H]1C(=O)[C@@]2(C)[C@H]([C@H](OC(=O)c3ccccc3)[C@]3(O)C[C@H](OC(=O)[C@H](O)[C@@H](NC(=O)c4ccccc4)c4ccccc4)C(C)=C1C3(C)C)[C@]1(OC(C)=O)CO[C@@H]1C[C@@H]2O [Paclitaxel]; conditions: max 3 µM
Method in brief: as §1

[6] = compound: CC(=O)c1c(C)c2cnc(Nc3ccc(N4CCNCC4)cn3)nc2n(C2CCCC2)c1=O [Palbociclib]; conditions: max 10 µM
Method in brief: as §1

[7] = compound: CC(C)n1c(=O)n(C)c2cnc3cc(F)c(-c4ccc(OCCCN5CCCCC5)nc4)cc3c21 [AZD1390]; conditions: max 0.3 µM
Method in brief: as §1

[8] = compound: CC1(C)CCC(CN2CCN(c3ccc(C(=O)NS(=O)(=O)c4ccc(NCC5CCOCC5)c([N+](=O)[O-])c4)c(Oc4cnc5[nH]ccc5c4)c3)CC2)=C(c2ccc(Cl)cc2)C1 [Venetoclax]; conditions: max 1 µM
Method in brief: as §1

[9] = compound: CC1=C(C(=CC=C1)Cl)NC(=O)C2=CN=C(S2)NC3=CC(=NC(=N3)C)N4CCN(CC4)CCO [Dasatinib]; conditions: max 2 µM
Method in brief: as §1

[10] = compound: CC1=CN2[C@@H](C1)C=NC3=CC(=C(C=C3C2=O)OC)OCCCCCOC4=C(C=C5C(=C4)N=C[C@@H]6CC(=CN6C5=O)C)OC [SG3199]; conditions: max 0.001 µM
Method in brief: as §1

[11] = compound: CCN(CCO)CCCOc1ccc2c(Nc3cc(CC(=O)Nc4cccc(F)c4)[nH]n3)ncnc2c1 [AZD2811]; conditions: max 1 µM
Method in brief: as §1

[12] = compound: CCc1c2c(nc3ccc(O)cc13)-c1cc3c(c(=O)n1C2)COC(=O)[C@]3(O)CC [SN-38]; conditions: max 0.3 µM
Method in brief: as §1

[13] = compound: CN(C)CCCOc1ccc(-c2ccc3ncc4c(c3c2)n(C2CCOCC2)c(=O)n4C)cn1 [AZD0156]; conditions: max 3 µM
Method in brief: as §1

[14] = compound: CN(CC[C@H](CSC1=CC=CC=C1)NC2=C(C=C(C=C2)S(=O)(=O)NC(=O)C3=CC=C(C=C3)N4CCC(CC4)[C@H](C5=CC=CC=C5C6=CC=C(C=C6)Cl)O)S(=O)(=O)C(F)(F)F)CCO [AZD4320]; conditions: max 1 µM
Method in brief: as §1

[15] = compound: COc1cc(Nc2ncc3c(n2)-c2ccc(Cl)cc2C(c2c(F)cccc2OC)=NC3)ccc1C(=O)O [Alisertib]; conditions: max 10 µM
Method in brief: as §1

[16] = compound: COc1cc([C@@H]2c3cc4c(cc3[C@@H](O[C@@H]3O[C@@H]5CO[C@@H](C)O[C@H]5[C@H](O)[C@H]3O)[C@H]3COC(=O)[C@H]23)OCO4)cc(OC)c1O [Etoposide]; conditions: max 10 µM
Method in brief: as §1

[17] = compound: COc1cc2ncnc(Nc3ccc(F)c(Cl)c3)c2cc1OCCCN1CCOCC1 [Gefitinib]; conditions: max 10 µM
Method in brief: as §1

[18] = compound: COc1cccc(OCCCN)c1-c1cc(Nc2cnc(C#N)cn2)n[nH]1 [Prexasertib]; conditions: max 1 µM
Method in brief: as §1

[19] = compound: COc1cccc2c1C(=O)c1c(O)c3c(c(O)c1C2=O)C[C@@](O)(C(=O)CO)C[C@@H]3O[C@H]1C[C@H](N)[C@H](O)[C@H](C)O1 [Doxorubicin]; conditions: max 1 µM
Method in brief: as §1

[20] = compound: COc1nnc2ccc(N3CCC(c4ccc(OCCN5CCN(C)C(=O)[C@H]5C)cc4)CC3)nn12 [AZD5153]; conditions: max 1 µM
Method in brief: as §1

[21] = compound: CS(=O)(=O)CCNCc1ccc(-c2ccc3ncnc(Nc4ccc(OCc5cccc(F)c5)c(Cl)c4)c3c2)o1 [Lapatinib]; conditions: max 10 µM
Method in brief: as §1

[22] = compound: C[C@@H](Nc1cc(F)cc(F)c1)c1cc(C(=O)N(C)C)cc2c(=O)cc(N3CCOCC3)oc12 [AZD8186]
Method in brief: as §1

[23] = compound: C[C@@H](Oc1cc(-c2cnn(C3CCNCC3)c2)cnc1N)c1c(Cl)ccc(F)c1Cl [Crizotinib]; conditions: max 10 µM
Method in brief: as §1

[24] = compound: C[C@@H](c1ccc2nccn2c1)n1nnc2ncc(-c3cnn(C)c3)nc21 [Savolitinib]; conditions: max 1 µM
Method in brief: as §1

[25] = compound: C[C@@H]1COCCN1C2=NC(=NC(=C2)C3(CC3)[S@](=N)(=O)C)C4=C5C=CNC5=NC=C4 [AZD6738]; conditions: max 10 µM
Method in brief: as §1

[26] = compound: Cc1c2c(nn1C)CSCc1cc(n(C)n1)CSc1cc(c3ccccc3c1)OCCCc1c(C(=O)O)n(C)c3c-2c(Cl)ccc13 [AZD5991]; conditions: max 1 µM
Method in brief: as §1

[27] = compound: Cc1cc2ncnn2cc1Nc1ncc2c(n1)n(C1CCOCC1)c(=O)n2C [AZD7648]; conditions: max 10 µM
Method in brief: as §1

[28] = compound: Cc1nc(-c2cn3c(n2)-c2ccc(-c4cnn(C(C)(C)C(N)=O)c4)cc2OCC3)n(C(C)C)n1 [Taselisib]; conditions: max 10 µM
Method in brief: as §1

[29] = compound: Cn1cnc2c(F)c(Nc3ccc(Br)cc3Cl)c(C(=O)NOCCO)cc21 [Selumetinib]; conditions: max 10 µM
Method in brief: as §1

[30] = compound: N#Cc1cnc(Nc2cc(NC[C@H]3CNCCO3)c(C(F)(F)F)cn2)cn1 [SRA737]; conditions: max 10 µM
Method in brief: as §1

[31] = compound: NC1(c2ccc(-c3nc4ccn5c(=O)[nH]nc5c4cc3-c3ccccc3)cc2)CCC1 [MK-2206]; conditions: max 10 µM
Method in brief: as §1

[32] = compound: Nc1ccn([C@@H]2O[C@H](CO)[C@@H](O)C2(F)F)c(=O)n1 [Gemcitabine]; conditions: max 0.3 µM
Method in brief: as §1

[33] = compound: O=C(Nc1ccc2[nH]nc(-c3ccncc3)c2c1)[C@@H]1CCN(CC(=O)N2CCN(c3ccc(-c4ncccn4)cc3)CC2)C1; conditions: max 5 µM
Method in brief: as §1

[34] = compound: O=C(c1cc(Cc2n[nH]c(=O)c3ccccc23)ccc1F)N1CCN(C(=O)C2CC2)CC1 [Olaparib]; conditions: max 10 µM
Method in brief: as §1

[35] = compound: O=c1[nH]cc(F)c(=O)[nH]1 [5-Fluorouracil]; conditions: max 20 µM
Method in brief: as §1

[36] = compound: C1CN(CCC1(C(=O)N[C@@H](CCO)C2=CC=C(C=C2)Cl)N)C3=NC=NC4=C3C=CN4 [Capivasertib]; conditions: max 10 µM
Method in brief: as §1

Measured: IC50, cell viability 72 h

BICR22 (Oral Cavity Carcinoma)
3410 nM: [25]
> 3000 nM: [13]
> 10000 nM: [1] | [2] | [6] | [17] | [21] | [22]; max 10 µM | [23] | [27] | [29] | [30] | [31] | [34]
928 nM: [28]
6.59 nM: [12]
> 300 nM: [7]
> 1000 nM: [4] | [8] | [11] | [14] | [20] | [24] | [26]
158 nM: [19]
6990 nM: [15]
54.5 nM: [18]
3150 nM: [16]
> 2000 nM: [9]
< 3 nM: [5]
> 1 nM: [10]
12.1 nM: [32]
1850 nM: [3] | [35]
> 5000 nM: [33]

CAPAN-2 (Pancreatic Carcinoma)
210 nM: [9]
> 5000 nM: [33]
> 1 nM: [10]
> 3000 nM: [5] | [13]
2700 nM: [3]
> 10000 nM: [1] | [2] | [6] | [15] | [16] | [17] | [21] | [22]; max 10 µM | [23] | [25] | [27] | [28] | [29] | [30] | [31] | [34]
> 300 nM: [7] | [12] | [32]
> 1000 nM: [4] | [8] | [11] | [14] | [19] | [20] | [24] | [26]
646 nM: [18]
> 20000 nM: [35]

FU97 (Gastric Carcinoma)
> 300 nM: [7] | [12] | [32]
288 nM: [20]
> 3000 nM: [3] | [5] | [13]
> 1 nM: [10]
> 2000 nM: [9]
> 20000 nM: [35]
> 10000 nM: [1] | [2] | [6] | [15] | [16] | [17] | [21] | [22]; max 10 µM | [23] | [25] | [27] | [28] | [29] | [30] | [31] | [34]
> 1000 nM: [8] | [11] | [14] | [18] | [19] | [24] | [26]
> 5000 nM: [33]

HCC1954 (Breast Carcinoma)
> 3000 nM: [13] | [22]; max 3 µM
> 2000 nM: [9]
59.8 nM: [18]
122 nM: [28]
> 1 nM: [10]
> 1000 nM: [4] | [8] | [11] | [14] | [19] | [20] | [24]
6260 nM: [21]
3240 nM: [36]
> 10000 nM: [6] | [15] | [17] | [23] | [25] | [27] | [29] | [31] | [34]
1970 nM: [3]
> 300 nM: [7] | [12]
133 nM: [26]

LN-405 (Glioblastoma)
> 10000 nM: [36] | [6] | [15] | [17] | [21] | [23] | [25] | [27] | [29] | [31] | [34]
> 300 nM: [7] | [12]
> 2000 nM: [9]
> 3000 nM: [3] | [13] | [22]; max 3 µM
> 1000 nM: [4] | [8] | [11] | [14] | [18] | [19] | [20] | [24] | [26]
6550 nM: [28]
> 1 nM: [10]

NCI-H2591 (Mesothelioma)
71.7 nM: [12]
> 1000 nM: [4] | [8] | [11] | [14] | [18] | [19] | [20] | [24] | [26]
> 10000 nM: [36] | [6] | [15] | [17] | [21] | [23] | [25] | [27] | [28] | [29] | [31] | [34]
> 1 nM: [10]
> 300 nM: [7]
> 2000 nM: [9]
> 3000 nM: [3] | [13] | [22]; max 3 µM
